pEC50: −log10 of the molar value. Read-outs that look alike come from different tables or passages of the source.
Legend:
rats and mice = details: transient ischemia with reperfusion and permanent occlusion; cited from earlier work
[1] = target: T1, type 2 IP3R from nuclei of HepG2 cells (Homo sapiens, UniProt Q14571); assay: Planar lipid bilayer single channel recording of native type 2 IP3R; type: biochemical
T1 construct: biophysical properties of native type 2 IP3R isolated from cells; endogenous in cells; host or cells: HepG2 cells, nuclei / nuclear envelope membranes
T1 sequence (Q14571 whole entry): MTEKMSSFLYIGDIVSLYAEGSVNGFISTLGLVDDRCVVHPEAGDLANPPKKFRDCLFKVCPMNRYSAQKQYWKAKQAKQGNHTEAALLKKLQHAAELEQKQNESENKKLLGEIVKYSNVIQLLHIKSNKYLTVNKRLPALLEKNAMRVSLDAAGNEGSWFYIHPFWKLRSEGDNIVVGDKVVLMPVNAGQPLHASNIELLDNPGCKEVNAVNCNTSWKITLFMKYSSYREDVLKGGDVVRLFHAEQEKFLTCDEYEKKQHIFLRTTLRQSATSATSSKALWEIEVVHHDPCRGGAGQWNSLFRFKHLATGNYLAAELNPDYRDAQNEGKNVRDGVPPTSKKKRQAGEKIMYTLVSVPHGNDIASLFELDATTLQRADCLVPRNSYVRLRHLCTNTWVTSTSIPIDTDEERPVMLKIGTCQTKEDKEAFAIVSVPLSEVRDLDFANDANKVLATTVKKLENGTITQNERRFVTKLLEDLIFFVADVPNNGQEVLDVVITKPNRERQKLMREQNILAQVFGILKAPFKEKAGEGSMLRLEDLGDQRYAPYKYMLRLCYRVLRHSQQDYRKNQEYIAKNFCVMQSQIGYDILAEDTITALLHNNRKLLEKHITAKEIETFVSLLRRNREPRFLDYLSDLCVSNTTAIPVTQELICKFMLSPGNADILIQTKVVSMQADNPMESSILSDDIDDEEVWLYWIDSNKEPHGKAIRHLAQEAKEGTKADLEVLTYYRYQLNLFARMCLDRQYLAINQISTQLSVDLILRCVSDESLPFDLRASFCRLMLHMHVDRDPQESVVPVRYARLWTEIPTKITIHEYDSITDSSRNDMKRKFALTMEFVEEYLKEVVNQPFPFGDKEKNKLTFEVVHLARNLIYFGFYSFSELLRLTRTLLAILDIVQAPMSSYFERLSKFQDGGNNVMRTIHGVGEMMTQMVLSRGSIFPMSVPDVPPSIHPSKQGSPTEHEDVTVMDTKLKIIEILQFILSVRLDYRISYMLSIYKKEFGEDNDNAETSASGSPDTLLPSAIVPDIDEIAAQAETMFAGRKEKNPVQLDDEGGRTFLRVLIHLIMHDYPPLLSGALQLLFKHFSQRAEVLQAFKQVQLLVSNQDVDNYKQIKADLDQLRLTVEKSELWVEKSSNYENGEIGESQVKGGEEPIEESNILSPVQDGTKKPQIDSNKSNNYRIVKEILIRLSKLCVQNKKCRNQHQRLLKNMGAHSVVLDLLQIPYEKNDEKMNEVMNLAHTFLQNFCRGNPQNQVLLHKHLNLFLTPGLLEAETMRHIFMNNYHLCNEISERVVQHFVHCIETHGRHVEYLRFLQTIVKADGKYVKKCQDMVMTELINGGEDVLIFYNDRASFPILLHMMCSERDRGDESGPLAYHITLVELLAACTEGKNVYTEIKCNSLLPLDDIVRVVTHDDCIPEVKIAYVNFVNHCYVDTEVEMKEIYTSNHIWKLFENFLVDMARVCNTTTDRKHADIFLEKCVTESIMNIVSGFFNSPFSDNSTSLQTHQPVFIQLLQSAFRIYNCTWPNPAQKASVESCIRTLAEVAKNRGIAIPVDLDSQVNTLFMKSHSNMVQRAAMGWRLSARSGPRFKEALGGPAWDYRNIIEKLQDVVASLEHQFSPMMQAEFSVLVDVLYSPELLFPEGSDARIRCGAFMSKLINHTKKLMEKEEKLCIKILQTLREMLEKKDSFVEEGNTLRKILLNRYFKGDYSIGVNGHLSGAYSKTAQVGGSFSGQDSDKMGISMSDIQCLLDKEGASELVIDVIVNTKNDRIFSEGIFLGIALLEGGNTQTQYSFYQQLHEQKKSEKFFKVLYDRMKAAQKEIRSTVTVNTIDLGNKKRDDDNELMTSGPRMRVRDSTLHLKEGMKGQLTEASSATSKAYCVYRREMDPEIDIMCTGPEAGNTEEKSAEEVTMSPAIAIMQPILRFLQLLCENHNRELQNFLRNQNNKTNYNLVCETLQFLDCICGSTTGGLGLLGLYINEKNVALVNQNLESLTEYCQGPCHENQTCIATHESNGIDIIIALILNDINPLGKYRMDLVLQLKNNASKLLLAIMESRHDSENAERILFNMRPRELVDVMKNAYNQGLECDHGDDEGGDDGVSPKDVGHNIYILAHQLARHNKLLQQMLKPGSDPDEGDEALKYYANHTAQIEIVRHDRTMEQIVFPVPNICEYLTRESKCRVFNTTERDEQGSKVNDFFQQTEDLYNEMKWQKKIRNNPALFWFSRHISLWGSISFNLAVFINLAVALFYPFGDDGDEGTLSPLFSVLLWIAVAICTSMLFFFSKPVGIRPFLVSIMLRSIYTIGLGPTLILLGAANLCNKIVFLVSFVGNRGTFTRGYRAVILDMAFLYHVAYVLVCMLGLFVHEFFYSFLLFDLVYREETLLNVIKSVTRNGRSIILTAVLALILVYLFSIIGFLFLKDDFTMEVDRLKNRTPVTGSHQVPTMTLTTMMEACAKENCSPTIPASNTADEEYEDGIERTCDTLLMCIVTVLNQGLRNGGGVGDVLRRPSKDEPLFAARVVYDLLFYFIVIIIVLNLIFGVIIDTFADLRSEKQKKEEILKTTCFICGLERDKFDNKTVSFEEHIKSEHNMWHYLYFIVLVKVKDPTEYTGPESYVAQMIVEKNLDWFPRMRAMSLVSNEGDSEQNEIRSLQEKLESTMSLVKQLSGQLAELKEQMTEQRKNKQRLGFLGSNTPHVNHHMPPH
Description: Electrophysiological recording of ICCs is a well established technique used to measure the effects on calcium levels based on external stimuli (83, 115-117). The planar lipid bilayer technique has been used by the principal investigator to determine the function of ICCs in neurons and non-neuronal cells. The inventors isolated type 2 IP3R from nuclei of HepG2 cells using the same techniques described herein. These studies represent the first determination of the biophysical properties of native type 2 IP3R isolated from cells. All previous studies on type 2 IP3R used artificially expressed type 2 IP3R of cells that had been transfected with the respective cDNA (118-119). Single channel activity was examined using the Planar Lipid Bilayer Membrane technique. […] The lack of feedback inhibition by high concentrations of Ca^2+ is again similar to what has been observed in the recombinant type 2 IP3R (118, 121). […] Both the increased sensitivity to IP3 and the lack of Ca2+-induced inactivation distinguishes the type 2 IP3R from the well-characterized type 1 IP3R. By isolating the receptor with its associated proteins from a functional cellular environment, properties influenced by accessory proteins can be readily assessed with single channel electrophysiology. Data obtained from these experiments analyzing the single channel characteristics of ICCs will provide the biophysical information necessary to correlate intracellular signaling data with function in live cells and in vivo, as shown hereinbelow.
Planar lipid bilayer single channel electrophysiology. ER vesicles or artificial liposomes containing ICCs may be incorporated into planar lipid bilayers and channel activity may be recorded electrophysiologically with the planar lipid bilayer being equivalent to the plasma membrane patch of patch clamp electrophysiology. […] Proper insertion of the ICCs may be monitored by appropriate stimulation of channels on the cytosolic side (IP3R: Ca^2+, IP3; RyR: Ca^2+, caffeine, cADPR; pc-2: Ca^2+, activating membrane potential; 77, 83, 115-117, 141). […] Channel insertion and activity may be recorded with Ag/AgCl electrodes contacting the buffer filled compartments via KCl containing agarose bridges. Activity of a single channel protein can be monitored because it passes enough current to be measured electronically using an amplifier. […] Single channel conductance, voltage-dependence, dwell times and dependence on intracellular free Ca^2+ concentrations may be determined using standard methods in the presence of blockers of other ICCs (IP3R: no IP3, heparin; RyR: ryanodine, ruthenium red; pc-2: lack of activating membrane potential; 77, 83). […]

type 1 IP3R = type 1 IP3R (Homo sapiens, UniProt Q14643); details: read-out: half maximal activation by IP3; cited from earlier work
recombinant type 2 IP3R = recombinant type 2 IP3R (Homo sapiens, UniProt Q14571); details: read-out: EC50-value for IP3; cited from earlier work
type 2 RyR = target: T2, type 2 RyR (Mus musculus, UniProt E9Q401); assay: Planar lipid bilayer single channel recording of RyR2; type: biochemical
T2 construct: First, type 2 RyR were isolated from mouse; from tissue; host or cells: mouse
Procedure: NAEs differentially regulate the activity of ICCs. First, type 2 RyR were isolated from mouse. Briefly, single channel activity was examined using the Planar Lipid Bilayer Membrane technique. […] Channel activity was initiated by cytosolic Ca^2+ concentrations of 10 nM and higher.
(§1) Next, the effect of NAE 12:0 on mouse RyRs was determined. NAE 12:0 dose-dependently and isoform-specifically regulated the function of RyRs and represent the first pharmacological tool to differentially manipulate individual intracellular calcium channel isoforms (FIG. 5). […] Measured at sub-maximally activating Ca^2+ concentrations (RyR type I: pCa 6; RyR type II: pCa 6.5) 500 nM NAE 12:0 increased RyR type I activity by 42% whereas the same concentration decreased RyR type II activity by 64% (FIG. 5).
Planar lipid bilayer single channel electrophysiology. ER vesicles or artificial liposomes containing ICCs may be incorporated into planar lipid bilayers and channel activity may be recorded electrophysiologically with the planar lipid bilayer being equivalent to the plasma membrane patch of patch clamp electrophysiology. Lipid bilayer membranes may be formed in a hole in a Teflon partition, which separates two buffer filled compartments (phosphatidylethanolamine and phosphatidylserine, 3:1 w/w, dissolved in decane, 40 mg lipid per ml, Avanti Polar Lipids, Alabaster, Ala.). Vesicles containing pc-2 may be added to one compartment (corresponding to the cytosolic compartment) and fuse with the bilayer leaving the channels contained in the vesicle as the only electrical connection between the two compartments. The buffer on the cytosolic side of the channel is a 250 mM HEPES-Tris solution, pH 7.35 and a 250 mM HEPES, 55 mM Ba(OH)2 (or defined concentration of other current carrier, such as Ca(OH)2 or Mg(OH)2) solution, pH 7.35 constitutes the buffer on the trans side of the bilayer. Proper insertion of the ICCs may be monitored by appropriate stimulation of channels on the cytosolic side (IP3R: Ca^2+, IP3; RyR: Ca^2+, caffeine, cADPR; pc-2: Ca^2+, activating membrane potential; 77, 83, 115-117, 141). Improperly inserted channels that are less than 5% under the described conditions will not be included in the analysis. Channel insertion and activity may be recorded with Ag/AgCl electrodes contacting the buffer filled compartments via KCl containing agarose bridges. Activity of a single channel protein can be monitored because it passes enough current to be measured electronically using an amplifier. Altering the divalent cation species on the luminal side of the channel that carries the current will test ion selectivity. Single channel conductance, voltage-dependence, dwell times and dependence on intracellular free Ca^2+ concentrations may be determined using standard methods in the presence of blockers of other ICCs (IP3R: no IP3, heparin; RyR: ryanodine, ruthenium red; pc-2: lack of activating membrane potential; 77, 83). Modulating reagents may be added to the cytosolic side of the protein using a perfusion system (77, 83).

RyR type I = target: T3, RyR type I (Mus musculus, UniProt E9PZQ0); assay: Planar lipid bilayer single channel recording of RyR type I; type: biochemical
T3 construct: from tissue; host or cells: mouse
Procedure: as §1
Planar lipid bilayer single channel electrophysiology. ER vesicles or artificial liposomes containing ICCs may be incorporated into planar lipid bilayers and channel activity may be recorded electrophysiologically with the planar lipid bilayer being equivalent to the plasma membrane patch of patch clamp electrophysiology. […] Proper insertion of the ICCs may be monitored by appropriate stimulation of channels on the cytosolic side (IP3R: Ca^2+, IP3; RyR: Ca^2+, caffeine, cADPR; pc-2: Ca^2+, activating membrane potential; 77, 83, 115-117, 141). […] Channel insertion and activity may be recorded with Ag/AgCl electrodes contacting the buffer filled compartments via KCl containing agarose bridges. Activity of a single channel protein can be monitored because it passes enough current to be measured electronically using an amplifier. […]

HT22 neurons = assay: Neuroprotection from L-glutamate toxicity (oxidative stress); type: cell-based
Procedure: NAE protects neurons in vitro from oxidative stress and glutamate toxicity. Next, the neuroprotective potential effects of NAEs were determined by culturing an immortalized hippocampal neuron cell line, HT 22, a model system used extensively. […] The mechanism of neurotoxicity is depletion of intracellular glutathione stores by inhibition of the cysteine transport and subsequently of glutathione synthesis.
The following assays may be used to assess neuronal viability and different stages of cell death. Optical assessment._Changes in cell morphology (apoptotic and necrotic morphology) and cell number may be used as an initial assessment of neurotoxicity and neuroprotection (see preliminary results in FIG. 8) using bright field differential interference contrast microscopy (Olympus IX-70, Olympus Corp., Japan; SimplePCI, C-imaging systems, Compix, Inc.).

[2] = test system: primary cultures of hippocampal neurons; assay: Ca2+ imaging of L-glutamate induced Ca2+ transients (fluo-3); type: cell-based; details: 100 μM, 30 min preincubation, 100 μM L-Glutamate stimulus
Procedure: Both single wavelength (high sensitivity) and ratiometric (quantitative analysis) fluorescent Ca^2+ indicator dyes may be used. Various parameters may be studies, such as substrate adherence, dye concentration, and culture conditions, have been optimized for measuring acutely isolated neurons as well as neuronal cell lines, as will be known to the skilled artisan. NAEs influence intracellular Ca2+ homeostasis. Next, studies were conducted using primary cultures of hippocampal neurons to determine the effects of NAEs on intracellular Ca^2+ signaling. In these studies, the influence of a bath-based application of NAE 16:0 on intracellular Ca^2+ signaling of primary hippocampal neurons was analyzed. Hippocampal neurons like most other CNS neurons express RyR isoform 2. Some neurons also express RyR3 and RyR1 is found predominantly in glial cells.
FIGS. 6A to 6E demonsatrate the effect of NAEs on primary isolated and cultured hippocampal neurons were exposed to 100 μM L-Glutamate. FIG. 6A show the DIC image of a neuron and the fluorescence of the calcium indicator dye fluo-3 in the same cell at resting levels (FIG. 6B) and after L-Glutamate stimulation (FIG. 6C; scale bar: 25 μm). […] When the hippocampal neurons were stimulated with L-glutamate, this triggers an influx of extracellular Ca^2+ and a prolonged release of Ca^2+ from intracellular stores (FIG. 6D). […]

[3] = test system: ovariectomized (OVX) rats; assay: Middle cerebral artery occlusion, cerebral ischemia-reperfusion injury; type: in vivo
Akt = details: primary hippocampal neurons, 100 μM, 60 min, total Akt unchanged
Procedure: Western Blot Analysis. Cells may be lysed in lysis buffer (50 mM Tris (pH 7.4), 150 mM NaCl, 10% glycerol, 1 mM EGTA, 1 mM Na3VO4, 5 μM ZnCl2, 100 mM NaF, 1% Triton X-100, 10 μg/ml aprotinin, 1 μg/ml leupeptin, and 1 mM PMSF) and snap frozen in liquid nitrogen. Following homogenization, by trituration of the cells through a 22 Ga needle, and centrifugation at 100,000×g for 15 min at 4° C., resulting supernatants (lysates) are normalized for protein content (Lowry Assay, Biorad DC Protein Assay Kit). 25 mg of protein from each sample will then be separated on a 10% polyacrylamide gel (SDS/PAGE) followed by transfer onto PVDF membranes (0.22 mm pore size, Biorad, Hercules, Calif.). The membranes are then blocked overnight with 3% BSA (Fraction V; Sigma) or in Tris-buffered saline containing 0.2% Tween-20 (TBS-T) and probed with the appropriate antibody. […] For Akt phosphorylation, rabbit anti-phosphoAkt (Ser473) or rabbit anti-phosphoAkt(Thr308) (Cell Signaling Technology); for Akt protein assessment, rabbit anti-Akt (New England Biolabs). Binding of the primary antibody to the membrane may be detected using a secondary antibody (either goat anti-rabbit or goat anti-mouse), conjugated to horseradish peroxidase (HRP; 1:40,000, Pierce, Rockford, Ill.) and visualized using enzyme-linked chemiluminescence (ECL; Amersham, Arlington Heights, Ill.). […]

IP3R = assay: Western blot of phosphothreonine on IP3R in retina tissue in vitro; type: cell-based, mouse; details: 100 nM, 60 min, vs vehicle control
Description: Chemo-luminescence-enhanced Western blotting as a sensitive method to evaluate changes in intracellular signaling. A crucial factor in the determination of signaling proteins mediating neuroprotection is the specificity of reagents used for immunolocalization. As disclosed herein, a number of antibodies identified and characterized (Tables 1 and 2) and the conditions that allow full identification of signaling proteins mediating NAE responses through NAEs in neurons provided. Using the sensitive chemo-luminescence-enhanced Western blotting technique, changes were detected in signaling protein composition. Furthermore, immunodetection methods allow an analysis of the changes in the phosphorylation status of signaling proteins in experiments assessing the neuroprotective functions of NAEs. The high temporal and quantitative sensitivity of the assay system may be especially useful in our in vitro and in vivo model systems of neurotoxicity which will measure small but functionally relevant initial changes associated with neuronal damage. In additional studies, the effects of lipophilic hormones on the phosphorylation status of intracellular calcium channels was determined. […]
The high temporal and quantitative sensitivity of the assay system may be especially useful in our model systems which will produce functionally relevant initial changes associated with neuronal damage.

C[C@]12CC[C@@H]3c4ccc(O)cc4CC[C@H]3[C@@H]1CC[C@@H]2O [17β-estradiol]
protection (rats and mice): > 50%

O=P(O)(O)O[C@@H]1[C@H](O)[C@H](O)[C@@H](OP(=O)(O)O)[C@H](OP(=O)(O)O)[C@H]1O [IP3, inositol 1,4,5-trisphosphate]
cytosolic IP3 concentration that initiates channel activity [1]: ≥ 10 nM | pEC50 ([1]; native channel, data not shown, read-out: half maximal activation, dependence on cytosolic IP3 concentration): 7.19 | pEC50 (type 1 IP3R): 6.30 | pEC50 (recombinant type 2 IP3R): 7.24

CCCCCCCCCCCC(=O)NCCO [NAE 12:0]
decrease of RyR type II activity (type 2 RyR; 500 nM, pCa 6.5, n=3, FIG. 5): 64% | change of single channel conductance and amplitude (type 2 RyR; RyR 2): Neither NAE 12:0 nor NAE 18:2 changed | increase of RyR type I activity (RyR type I; 500 nM, pCa 6, n=3, FIG. 5): 42% | change of single channel conductance and amplitude (RyR type I; RyR 1): Neither NAE 12:0 nor NAE 18:2 changed | protection from L-glutamate toxicity (HT22 neurons): dose-dependently protects | effect of NAE alone on neuronal viability (HT22 neurons; HT-22 cells, even at high concentrations, no L-glutamate): no effect | number of dead cells after L-glutamate insult (HT22 neurons; in the presence of the NAE): significantly reduced

CCCCCCCCCCCCCCCC(=O)NCCO [NAE 16:0]
channel open frequency (type 2 RyR; 0.1 μM): reduced significantly | channel open probability (type 2 RyR; 0.1 μM): reduction | dwell time (type 2 RyR; 0.1 μM): reduced significantly | channel activity at higher concentrations (type 2 RyR; higher, micromolar concentrations, FIG. 4): almost complete block | single channel amplitude (not affected) (type 2 RyR; in presence of NAE 16:0): 3.9±0.1 pA | single channel conductance (not affected) (type 2 RyR; in presence of NAE 16:0): 110±8 pS | RyR2 channel activity (type 2 RyR; pCa 6, n=3, FIG. 4): dose-dependently decreased | amplitude of Ca2+ transients [2]: significantly decreased | duration of Ca2+ transients [2]: significantly decreased | effect of NAE alone on neuronal viability (HT22 neurons): no effect | potency in neuroprotection, comparison (HT22 neurons; FIG. 10 vs FIG. 9): higher potency in neuroprotection than NAE 12:0 | protection of cerebral cortex and basal ganglia (infarct volume, TTC) ([3]; 10 mg/kg sc, 1 hr MCAO, 24 hr reperfusion, N=7/group, P<0.05 vs OVX): protected | protection of CNS tissue from MCA occlusion-induced ischemic damage ([3]; acute (sc 6 h prior and immediately before MCAO, 10 mg/kg) and chronic (1 day prior) regimen): effectively protected | phosphorylated/active Akt (Akt): significant increase

CC(=O)[C@H]1CC[C@H]2[C@@H]3CCC4=CC(=O)CC[C@]4(C)[C@H]3CC[C@]12C [progesterone]
phosphothreonine immunoreactivity on the IP3R (IP3R): increase

N.N.N.N.N.N.N.N.N.N.N.N.N.N.[Cl-].[Cl-].[Cl-].[Cl-].[Cl-].[Cl-].[O-2].[O-2].[Ru+3].[Ru+3].[Ru+4] [ruthenium red, reference compound]
block of channel activity (type 2 RyR; ruthenium red 20 μM): blocked

calmodulin
effect on lack of Ca2+ inhibition of the channel ([1]; excess amounts, preliminary experiments): did not change this behavior

heparin
block of channel activity ([1]; heparin 50 μg/ml): blocked
